Article PMC6272715, “Discovery of Novel Small Molecule Anti-HCV Agents via the CypA Inhibitory Mechanism Using O-Acylation-Directed Lead Optimization” (Molecules, 2015)
Where two headings read alike, the source gives them in different places.

How the values were obtained:
HCV JFH1-2a replicon = assay: HCV JFH1-2a subgenomic replicon assay (Renilla luciferase, Huh 7.5.1 replicon cells); format: cell-based; conditions: Hepatitis C virus
[1] = system: JFH1-2a virus (wild type); assay: HCV virus assay, JFH1-2a wild type, Huh 7.5.1 cells; conditions: Hepatitis C virus, Huh-7.5.1, read-out: Anti-HCV Activity EC50 ± SD Virus Assay JFH1-2a
[2] = Cell proliferation (cytotoxicity) assay, WST-1; format: cell-based; conditions: human, Huh 7.5.1 cells, Table 4, 48 h
Method: Cell Proliferation Assay: Huh 7.5.1 cells were seeded at a density of 2 × 10^4 cells per well in 96-well plates overnight. The cells were respectively incubated with serial diluted compounds for 48 h, and the viability of Huh7.5.1 cells was determined in 96-well tissue culture plates using cell proliferation reagent WST-1 (Roche, Basel, Switzerland). The absorbance (OD450 /reference OD630) was measured to detect the cytotoxicity of compounds, according to the manufacturer’s protocol of Cell Proliferation Reagent WST-1.

HCV Con1-1b replicon = assay: HCV Con1-1b subgenomic replicon assay; format: cell-based; conditions: Hepatitis C virus; Table 4; read-out: Anti-HCV Activity EC50 ± SD Replicon Assay Con1-1b
HCV H77-1a replicon = assay: HCV H77-1a subgenomic replicon assay; format: cell-based; conditions: Hepatitis C virus; Table 4; read-out: Anti-HCV Activity EC50 ± SD Replicon Assay H77-1a
[3] = Table 1, mean ± SD of three independent experiments, read-out: Anti-HCV JFH1-2a Replicon Assay EC50 ± SD
[4] = Table 4, read-out: Anti-HCV Activity EC50 ± SD Replicon Assay JFH1-2a

O=C(NC(=O)c1c(O)cccc1O)NC1CCCCC1 [Compound 4]
EC50 (HCV JFH1-2a replicon; [3]): > 50000 nM

CCCCCC(=O)Oc1cccc(O)c1C(=O)NC(=O)NC1c2ccccc2-c2ccccc21 [Compound 24, 1-(2-Hexanoyloxy-6-hydroxybenzoyl)-3-(9H-fluoren-9-yl)-urea]
melting point: 200 to 222 °C
EC50 [1]: 740 ± 370 nM
CC50 at 48 h [2]: > 16000 nM
EC50 (HCV Con1-1b replicon): 1000 ± 10 nM
EC50 (HCV H77-1a replicon): 1050 ± 10 nM
EC50 (HCV JFH1-2a replicon; [4]): 1080 ± 50 nM

CCCCC(=O)Oc1cccc(OC(=O)CCCC)c1C(=O)NC(=O)NC1c2ccccc2-c2ccccc21 [Compound 30, 1-[2,6-Bis-(valeryloxy)benzoyl]-3-(9H-fluoren-9-yl)-urea]
melting point: 172 to 174 °C
EC50 [1]: 470 ± 10 nM
CC50 at 48 h [2]: > 16000 nM
EC50 (HCV Con1-1b replicon): 830 ± 260 nM
EC50 (HCV H77-1a replicon): 730 ± 110 nM
EC50 (HCV JFH1-2a replicon; [4]): 620 ± 50 nM

CCCCC(=O)Oc1cccc(O)c1C(=O)NC(=O)NC1c2ccccc2-c2ccccc21 [Compound 22, 1-(2-Hydroxy-6-valeryloxybenzoyl)-3-(9H-fluoren-9-yl)-urea]
melting point: 193 to 199 °C
EC50 [1]: 440 ± 30 nM
CC50 at 48 h [2]: > 16000 nM
EC50 (HCV Con1-1b replicon): 440 ± 100 nM
EC50 (HCV H77-1a replicon): 1000 ± 60 nM
EC50 (HCV JFH1-2a replicon; [4]): 470 ± 20 nM

O=C(NCc1ccccc1)NC(=O)c1c(O)cccc1O [Compound 3]
EC50 (HCV JFH1-2a replicon; [3]): > 50000 nM

CSc1cccc(F)c1C(=O)NC(=O)NC1c2ccccc2-c2ccccc21 [Compound 12]
EC50 (HCV JFH1-2a replicon; [3]): > 50000 nM

CCCC(=O)Oc1cccc(O)c1C(=O)NC(=O)NC1c2ccccc2-c2ccccc21 [Compound 20, 1-(2-Hydroxy-6-n-butyryloxybenzoyl)-3-(9H-fluoren-9-yl)-urea]
melting point: 204 to 210 °C
EC50 [1]: 280 ± 20 nM
CC50 at 48 h [2]: > 16000 nM
EC50 (HCV Con1-1b replicon): 490 ± 20 nM
EC50 (HCV H77-1a replicon): 980 ± 30 nM
EC50 (HCV JFH1-2a replicon; [4]): 700 ± 20 nM

O=C(NC(=O)c1c(O)cccc1OCCO)NC1c2ccccc2-c2ccccc21 [Compound 16]
EC50 (HCV JFH1-2a replicon; [3]): > 20000 nM

CSc1ccccc1C(=O)NC(=O)NC1c2ccccc2-c2ccccc21 [Compound 10]
EC50 (HCV JFH1-2a replicon; [3]): > 50000 nM

CCCCCCCC(=O)Oc1cccc(OC(=O)CCCCCCC)c1C(=O)NC(=O)NC1c2ccccc2-c2ccccc21 [Compound 33, 1-[2,6-Bis-(n-Octanoyloxy)benzoyl]-3-(9H-fluoren-9-yl)-urea]
melting point: 152 to 153 °C
EC50 [1]: 950 ± 20 nM
CC50 at 48 h [2]: > 16000 nM
EC50 (HCV Con1-1b replicon): 730 ± 200 nM
EC50 (HCV H77-1a replicon): 540 ± 150 nM
EC50 (HCV JFH1-2a replicon; [4]): 980 ± 10 nM

O=C(NC(=O)c1c(O)cccc1OC(=O)C1CC1)NC1c2ccccc2-c2ccccc21 [Compound 21, 1-(2-Cyclopropyl formyloxy-6-hydroxybenzoyl)-3-(9H-fluoren-9-yl)-urea]
melting point: 194 to 199 °C
EC50 [1]: 780 ± 350 nM
CC50 at 48 h [2]: > 16000 nM
EC50 (HCV Con1-1b replicon): 850 ± 240 nM
EC50 (HCV H77-1a replicon): 570 ± 200 nM
EC50 (HCV JFH1-2a replicon; [4]): 430 ± 80 nM

O=C(NC(=O)c1ccccc1F)NC1c2ccccc2-c2ccccc21 [Compound 8]
EC50 (HCV JFH1-2a replicon; [3]): 1650 ± 320 nM

CCC(=O)Oc1cccc(OC(=O)CC)c1C(=O)NC(=O)NC1c2ccccc2-c2ccccc21 [Compound 27, 1-[2,6-Bis-(propionyloxy)benzoyl]-3-(9H-fluoren-9-yl)-urea]
melting point: 165 to 167 °C
EC50 [1]: 420 ± 80 nM
CC50 at 48 h [2]: > 16000 nM
EC50 (HCV Con1-1b replicon): 380 ± 20 nM
EC50 (HCV H77-1a replicon): 520 ± 270 nM
EC50 (HCV JFH1-2a replicon; [4]): 380 ± 30 nM

O=C(NC(=O)c1c(F)cccc1F)NC1c2ccccc2-c2ccccc21 [Compound 11]
EC50 (HCV JFH1-2a replicon; [3]): > 50000 nM

CC(C)(C)C(=O)Oc1cccc(OC(=O)C(C)(C)C)c1C(=O)NC(=O)NC1c2ccccc2-c2ccccc21 [Compound 31, 1-[2,6-Bis-(trimethylacetoxyloxy)benzoyl]-3-(9H-fluoren-9-yl)-urea]
melting point: 202 to 205 °C
EC50 [1]: 840 ± 210 nM
CC50 at 48 h [2]: > 16000 nM
EC50 (HCV Con1-1b replicon): 560 ± 200 nM
EC50 (HCV H77-1a replicon): 870 ± 270 nM
EC50 (HCV JFH1-2a replicon; [4]): 750 ± 290 nM

CCCCCC(=O)Oc1cccc(OC(=O)CCCCC)c1C(=O)NC(=O)NC1c2ccccc2-c2ccccc21 [Compound 32, 1-[2,6-Bis-(hexanoyloxy)benzoyl]-3-(9H-fluoren-9-yl)-urea]
melting point: 162 to 165 °C
EC50 [1]: 740 ± 310 nM
CC50 at 48 h [2]: > 16000 nM
EC50 (HCV Con1-1b replicon): 730 ± 340 nM
EC50 (HCV H77-1a replicon): 630 ± 290 nM
EC50 (HCV JFH1-2a replicon; [4]): 380 ± 50 nM

O=C(NC(=O)c1ccccc1Cl)NC1c2ccccc2-c2ccccc21 [Compound 5]
EC50 (HCV JFH1-2a replicon; [3]): > 50000 nM

O=C(NC(=O)c1c(O)cccc1O)Nc1cccc2ccccc12 [Compound 2]
EC50 (HCV JFH1-2a replicon; [3]): > 10000 nM

CCCC(=O)Oc1cccc(OC(=O)CCC)c1C(=O)NC(=O)NC1c2ccccc2-c2ccccc21 [Compound 28, 1-[2,6-Bis-(n-butyryloxy)benzoyl]-3-(9H-fluoren-9-yl)-urea]
melting point: 186 to 188 °C
EC50 [1]: 680 ± 470 nM
CC50 at 48 h [2]: > 16000 nM
EC50 (HCV Con1-1b replicon): 620 ± 150 nM
EC50 (HCV H77-1a replicon): 790 ± 200 nM
EC50 (HCV JFH1-2a replicon; [4]): 840 ± 320 nM

O=C(NC(=O)c1ccccc1C(F)(F)F)NC1c2ccccc2-c2ccccc21 [Compound 9]
EC50 (HCV JFH1-2a replicon; [3]): > 10000 nM

CC(=O)Oc1cccc(OC(C)=O)c1C(=O)NC(=O)NC1c2ccccc2-c2ccccc21 [Compound 15, 1-[2,6-Bis-(acetoxy)benzoyl]-3-(9H-fluoren-9-yl)-urea]
EC50 [1]: 740 ± 360 nM
CC50 at 48 h [2]: > 16000 nM
EC50 (HCV Con1-1b replicon): 360 ± 40 nM
EC50 (HCV H77-1a replicon): 800 ± 130 nM
EC50 (HCV JFH1-2a replicon; [3]): 460 ± 50 nM
EC50 (HCV JFH1-2a replicon; [4]): 460 ± 50 nM

CCC(=O)Oc1cccc(O)c1C(=O)NC(=O)NC1c2ccccc2-c2ccccc21 [Compound 19, 1-(2-Hydroxy-6-propionyloxybenzoyl)-3-(9H-fluoren-9-yl)-urea]
melting point: 206 to 216 °C
EC50 [1]: 470 ± 40 nM
CC50 at 48 h [2]: > 16000 nM
EC50 (HCV Con1-1b replicon): 720 ± 200 nM
EC50 (HCV H77-1a replicon): 380 ± 220 nM
EC50 (HCV JFH1-2a replicon; [4]): 940 ± 70 nM

O=C(NC(=O)c1c(OCCO)cccc1OCCO)NC1c2ccccc2-c2ccccc21 [Compound 17]
EC50 (HCV JFH1-2a replicon; [3]): > 20000 nM

O=C(NC(=O)c1c(OC(=O)c2ccccc2)cccc1OC(=O)c1ccccc1)NC1c2ccccc2-c2ccccc21 [Compound 26, 1-[2,6-Bis-(benzoyloxy)benzoyl]-3-(9H-fluoren-9-yl)-urea]
melting point: 211 to 213 °C
EC50 [1]: 1090 ± 30 nM
CC50 at 48 h [2]: > 16000 nM
EC50 (HCV Con1-1b replicon): 390 ± 50 nM
EC50 (HCV H77-1a replicon): 530 ± 210 nM
EC50 (HCV JFH1-2a replicon; [4]): 360 ± 30 nM

COc1cccc(Cl)c1C(=O)NC(=O)NC1c2ccccc2-c2ccccc21 [Compound 13]
EC50 (HCV JFH1-2a replicon; [3]): > 50000 nM

N#Cc1ccccc1C(=O)NC(=O)NC1c2ccccc2-c2ccccc21 [Compound 7]
EC50 (HCV JFH1-2a replicon; [3]): > 50000 nM

O=C(NC(=O)c1ccccc1[N+](=O)[O-])NC1c2ccccc2-c2ccccc21 [Compound 6]
EC50 (HCV JFH1-2a replicon; [3]): > 50000 nM

O=C(NC(=O)c1c(OC(=O)C2CC2)cccc1OC(=O)C1CC1)NC1c2ccccc2-c2ccccc21 [Compound 29, 1-[2,6-Bis-(cyclopropylformyloxy)benzoyl]-3-(9H-fluoren-9-yl)-urea]
melting point: 183 to 186 °C
EC50 [1]: 740 ± 350 nM
CC50 at 48 h [2]: > 16000 nM
EC50 (HCV Con1-1b replicon): 600 ± 190 nM
EC50 (HCV H77-1a replicon): 520 ± 140 nM
EC50 (HCV JFH1-2a replicon; [4]): 420 ± 140 nM

CC(C)(C)C(=O)Oc1cccc(O)c1C(=O)NC(=O)NC1c2ccccc2-c2ccccc21 [Compound 23, 1-(2-Hydroxy-6-trimethylacetoxyloxybenzoyl)-3-(9H-fluoren-9-yl)-urea]
melting point: 187 to 189 °C
EC50 [1]: 530 ± 50 nM
CC50 at 48 h [2]: > 16000 nM
EC50 (HCV Con1-1b replicon): 830 ± 280 nM
EC50 (HCV H77-1a replicon): 670 ± 50 nM
EC50 (HCV JFH1-2a replicon; [4]): 480 ± 20 nM
